According to the supplement of paper PMC10307832:

Experiments:
Assay in all cases: relative viability (nuclei count vs DMSO), 5 days (fraction); higher = more cells survive
Bexarotene + Tozasertib = compound: C=C(c1ccc(C(=O)O)cc1)c1cc2c(cc1C)C(C)(C)CCC2(C)C [Bexarotene] + Cc1cc(Nc2cc(N3CCN(C)CC3)nc(Sc3ccc(NC(=O)C4CC4)cc3)n2)n[nH]1 [Tozasertib] (partner 0.1 µM)
How it was run: (§1)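 A single step with final 0.05% Triton X-100, 1% formaldehyde and 1 ug/ml Hoechst fixed the cells and stained nuclei 5 days after treatment. Lung cancer cell lines in 1536-well plates had been treated by pin tool the day after seeding with one drug alone or a fixed anchor-drug dose plus five library-drug doses (not always all listed) in √10 steps, and nuclei were counted on 4× images. Relative viability is the ratio of nuclei in treated wells to nuclei in vehicle wells, taken as the median of duplicate plates.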

Bexarotene + Dasatinib = compound: C=C(c1ccc(C(=O)O)cc1)c1cc2c(cc1C)C(C)(C)CCC2(C)C [Bexarotene] + Cc1nc(Nc2ncc(C(=O)Nc3c(C)cccc3Cl)s2)cc(N2CCN(CCO)CC2)n1 [Dasatinib] (partner 0.075 µM)
How it was run: as §1

Bexarotene + Foretinib = compound: C=C(c1ccc(C(=O)O)cc1)c1cc2c(cc1C)C(C)(C)CCC2(C)C [Bexarotene] + COc1cc2c(Oc3ccc(NC(=O)C4(C(=O)Nc5ccc(F)cc5)CC4)cc3F)ccnc2cc1OCCCN1CCOCC1 [Foretinib] (partner 0.25 µM)
How it was run: as §1

Bexarotene + Phenformin = compound: C=C(c1ccc(C(=O)O)cc1)c1cc2c(cc1C)C(C)(C)CCC2(C)C [Bexarotene] + N=C(N)NC(=N)NCCc1ccccc1 [Phenformin] (partner 250 µM)
How it was run: as §1

Bexarotene + OSI-027 = compound: C=C(c1ccc(C(=O)O)cc1)c1cc2c(cc1C)C(C)(C)CCC2(C)C [Bexarotene] + COc1cccc2cc(-c3nc([C@H]4CC[C@H](C(=O)O)CC4)n4ncnc(N)c34)[nH]c12 [OSI-027] (partner 0.5 µM)
How it was run: as §1

Bexarotene + Luminespib = compound: C=C(c1ccc(C(=O)O)cc1)c1cc2c(cc1C)C(C)(C)CCC2(C)C [Bexarotene] + CCNC(=O)c1noc(-c2cc(C(C)C)c(O)cc2O)c1-c1ccc(CN2CCOCC2)cc1 [Luminespib] (partner 0.01 µM)
How it was run: as §1

Bexarotene = compound: C=C(c1ccc(C(=O)O)cc1)c1cc2c(cc1C)C(C)(C)CCC2(C)C [Bexarotene]
How it was run: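 Lung cancer cell lines in 1536-well plates were exposed by pinning to five library-drug doses (not always all listed) √10 apart, following an overnight hold at 37 °C. MetaXpress counted Hoechst-stained nuclei from 4× images taken after 5 days without medium change. Viability is the median ratio of treated-well to vehicle-well nuclei across plates. Plates required control CV below 25% and at least one doubling.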

## NCI-H1623
Bexarotene + Tozasertib; first compound 0.08 µM
  relative viability: 0.452
Bexarotene + Tozasertib; first compound 0.253 µM
  relative viability: 0.431
Bexarotene + Tozasertib; first compound 0.8 µM
  relative viability: 0.333
Bexarotene + Tozasertib; first compound 2.53 µM
  relative viability: 0.424
Bexarotene + Tozasertib; first compound 8 µM
  relative viability: 0.416
Bexarotene + Dasatinib; first compound 0.08 µM
  relative viability: 0.587
Bexarotene + Dasatinib; first compound 0.253 µM
  relative viability: 0.501
Bexarotene + Dasatinib; first compound 0.8 µM
  relative viability: 0.568
Bexarotene + Dasatinib; first compound 2.53 µM
  relative viability: 0.579
Bexarotene + Dasatinib; first compound 8 µM
  relative viability: 0.531
Bexarotene + Foretinib; first compound 0.08 µM
  relative viability: 0.836
Bexarotene + Foretinib; first compound 0.253 µM
  relative viability: 0.813
Bexarotene + Foretinib; first compound 0.8 µM
  relative viability: 0.805
Bexarotene + Foretinib; first compound 2.53 µM
  relative viability: 0.848
Bexarotene + Foretinib; first compound 8 µM
  relative viability: 0.773
Bexarotene + Phenformin; first compound 0.08 µM
  relative viability: 0.661
Bexarotene + Phenformin; first compound 0.253 µM
  relative viability: 0.598
Bexarotene + Phenformin; first compound 0.8 µM
  relative viability: 0.528
Bexarotene + Phenformin; first compound 2.53 µM
  relative viability: 0.612
Bexarotene + Phenformin; first compound 8 µM
  relative viability: 0.504
Bexarotene + OSI-027; first compound 0.08 µM
  relative viability: 0.439
Bexarotene + OSI-027; first compound 0.253 µM
  relative viability: 0.441
Bexarotene + OSI-027; first compound 0.8 µM
  relative viability: 0.363
Bexarotene + OSI-027; first compound 2.53 µM
  relative viability: 0.407
Bexarotene + OSI-027; first compound 8 µM
  relative viability: 0.334
Bexarotene + Luminespib; first compound 0.08 µM
  relative viability: 0.459
Bexarotene + Luminespib; first compound 0.253 µM
  relative viability: 0.476
Bexarotene + Luminespib; first compound 0.8 µM
  relative viability: 0.481
Bexarotene + Luminespib; first compound 2.53 µM
  relative viability: 0.441
Bexarotene + Luminespib; first compound 8 µM
  relative viability: 0.543
Bexarotene; 0.08 µM
  relative viability: 0.751
Bexarotene; 0.253 µM
  relative viability: 0.849
Bexarotene; 0.8 µM
  relative viability: 0.815
Bexarotene; 2.53 µM
  relative viability: 0.854
Bexarotene; 8 µM
  relative viability: 0.806
